Measurements as given in US12275684B2, “Methods for making and using endoxifen” (Atossa Therapeutics, Inc., priority 2017, dated 2025).
Read-outs that look alike come from different tables or passages of the source.

Experiment: Placebo controlled, dose escalation pharmacokinetic study of oral (Z)-Endoxifen capsules (serum endoxifen; incl. accumulation ratios and dose linearity)
Assay type: in vivo, human
Conditions: for AUC(0-t) / Cmax / Tmax / half-life / AUC(0-inf) / AUC / Vd/F: female, human, serum, po; for AUC(0-inf): read-out: AUC0-inf; for AUC: read-out: AUC to last time point; for Vd/F: read-out: volume of distribution (Vd/F); for time to attain steady state: once daily oral dosing
Source text: An objective of the study was to assess the safety and tolerability of oral (Z)-Endoxifen when administered […] orally as a capsule to healthy female volunteers. A secondary objective was to assess the pharmacokinetics of multiple doses of oral (Z)-Endoxifen in the subjects.
Generally, healthy female volunteers aged ≥18 years and ≤65 years were enrolled. 24 participants were enrolled in 3 cohorts and will be administered study drug orally. Three dose levels of orally administered (Z)-Endoxifen were investigated in 3 cohorts. In each cohort participants were randomized to receive an oral (Z)-Endoxifen or placebo in a blinded fashion. Enteric-resistant capsules used in the study were designed as delayed release capsules to resist rupture for at least 30 minutes, but typically, for about 2 hours, under gastric conditions and then open fully in intestinal fluid (DRCaps; Capsugel, a Lonza Company, USA). Enteric-resistant (Swedish Orange size Zero (0); Capsugel, USA) DRCaps capsules manually filled with 1, 2 or 4 mg of (Z)-endoxifen neat in compliance with GMP requirements were used. Placebo capsules contained microcrystalline cellulose an inert common capsule and tablet excipient.
Each cohort enrolled 8 participants, with 6 participants receiving (Z)-Endoxifen 1 mg capsules orally at 1 mg (Cohort 1), 2 mg (Cohort 2) or 4 mg (Cohort 3) doses and 2 participants receiving matching placebo capsules. In Cohort 1 (Dose Level=1 mg) two participants (sentinels) were dosed 24 hours prior to the remaining participants. One sentinel was dosed with (Z)-Endoxifen and the other with placebo. The remaining six participants in Cohort 1 were dosed as no safety concerns were identified in the sentinel participants. The non-sentinel participants in Cohort 1 were admitted to the clinical research facility at least one day later than the sentinels. There were no sentinels in Cohorts 2 and 3.
Participant engagement in this study was for a period of 56 days. These included a 28 day screening period, and a 7 day post treatment period for Pharmacokinetic (PK) sampling. There were two confinement periods, one at the beginning and one at the end of the dosing periods. Participants were confined to the clinical facility on Days-1 through to Day 2 and Days 21 and 22. If participants were to experience any clinically significant adverse events during the study, they would have been required to remain in the clinical facility for further observation at the discretion of the Principal Investigator (PI).
Healthy female volunteers were screened within 28 days prior to commencement of dosing. Participants were admitted to the clinical facility on Day-1 for up to 3 days. The first dose of (Z)-Endoxifen or placebo capsules was administered on Day 1. Following completion of all safety assessments and sampling for PK analyses, participants were discharged from the clinical facility on Day 2. The first dose on Day 1 was followed by a 6-day treatment free period (Days 2-7). Each participant returned to the clinical facility for PK blood draws and safety assessments during the treatment free period on study Days 4 and 6. On Day 8 participants commenced daily administration of (Z)-Endoxifen capsules or placebo capsules for 14 consecutive days (Days 8-21). Participants were supplied with study drug capsules and asked to self administer daily. Participants visited the clinical facility on Days 11, 14 and 17, prior to dose administration, for PK blood draws and safety assessments. On the morning of Day 21 each participant returned to the clinical facility prior to dose administration and were confined to the facility until Day 22 to allow for the collection of PK blood draws and safety assessments. The Day 21 dose was the last administration of study drug. Participants were discharged from the clinical facility on Day 22 and returned for PK blood draws and safety assessments on study Days 24, 26, and 28. […]

[1] = 4 mg, Day 1, dose 4 mg oral, GeoMean, N 6
[2] = 4 mg, Day 1, dose 4 mg oral, Mean, N 6
[3] = 4 mg, Day 1, dose 4 mg oral, Median, N 6

AUC(0-t) (2 mg/day, Day 21, 2 mg/day oral (n = 6), read-out: AUC24 hr, Arithmetic Mean): 911 ng·h/mL
Cmax (2 mg/day, Day 21, 2 mg/day oral (n = 6), read-out: Cmax, Arithmetic Mean): 50 ng/mL
Tmax (2 mg/day, Day 21, 2 mg/day oral (n = 6), read-out: Median Tmax): 4 h
Tmax (2 mg/day, Day 21, 2 mg/day oral (n = 6), read-out: Tmax (Range)): 2 to 6.05 h
half-life (2 mg/day, Day 21, 2 mg/day oral (n = 6), read-out: t1/2, Arithmetic Mean (converted)): 43.4 h
AUC(0-inf) [1]: 1700 ng·h/mL
AUC(0-t) (4 mg, Day 1, dose 4 mg oral, GeoMean, N 6, read-out: AUC24hr): 521 ng·h/mL
AUC [1]: 1420 ng·h/mL
Cmax (4 mg, Day 1, dose 4 mg oral, GeoMean, N 6, read-out: Cmax): 29.1 ng/mL
Tmax (4 mg, Day 1, dose 4 mg oral, GeoMean, N 6, read-out: Tmax): 5.15 h
half-life (4 mg, Day 1, dose 4 mg oral, GeoMean, N 6, read-out: apparent terminal half life (t½) (converted)): 40.7 h
Vd/F [1]: 138 L
AUC(0-inf) [2]: 2020 ng·h/mL
AUC(0-t) (4 mg, Day 1, dose 4 mg oral, Mean, N 6, read-out: AUC24hr): 587 ng·h/mL
AUC [2]: 1650 ng·h/mL
Cmax (4 mg, Day 1, dose 4 mg oral, Mean, N 6, read-out: Cmax): 32.5 ng/mL
Tmax (4 mg, Day 1, dose 4 mg oral, Mean, N 6, read-out: Tmax): 5.56 h
half-life (4 mg, Day 1, dose 4 mg oral, Mean, N 6, read-out: apparent terminal half life (t½) (converted)): 41.6 h
Vd/F [2]: 154 L
AUC(0-inf) [3]: 1760 ng·h/mL
AUC(0-t) (4 mg, Day 1, dose 4 mg oral, Median, N 6, read-out: AUC24hr): 539 ng·h/mL
AUC [3]: 1420 ng·h/mL
Cmax (4 mg, Day 1, dose 4 mg oral, Median, N 6, read-out: Cmax): 29.5 ng/mL
Tmax (4 mg, Day 1, dose 4 mg oral, Median, N 6, read-out: Tmax): 5.08 h
half-life (4 mg, Day 1, dose 4 mg oral, Median, N 6, read-out: apparent terminal half life (t½) (converted)): 39.9 h
Vd/F [3]: 131 L
AUC(0-t) (4 mg, Day 21, dose 4 mg oral once daily, GeoMean, N 6, read-out: AUC24hr): 1740 ng·h/mL
Cmax (4 mg, Day 21, dose 4 mg oral once daily, GeoMean, N 6, read-out: Cmax): 100 ng/mL
Tmax (4 mg, Day 21, dose 4 mg oral once daily, GeoMean, N 6, read-out: Tmax): 4.75 h
half-life (4 mg, Day 21, dose 4 mg oral once daily, GeoMean, N 6, read-out: apparent terminal half life (t½) (converted)): 44.6 h
Vd/F (4 mg, Day 21, dose 4 mg oral once daily, GeoMean, N 6): 148 L
AUC(0-t) (4 mg, Day 21, dose 4 mg oral once daily, Mean, N 6, read-out: AUC24hr): 2040 ng·h/mL
Cmax (4 mg, Day 21, dose 4 mg oral once daily, Mean, N 6, read-out: Cmax): 115 ng/mL
Tmax (4 mg, Day 21, dose 4 mg oral once daily, Mean, N 6, read-out: Tmax): 5.33 h
half-life (4 mg, Day 21, dose 4 mg oral once daily, Mean, N 6, read-out: apparent terminal half life (t½) (converted)): 45.1 h
Vd/F (4 mg, Day 21, dose 4 mg oral once daily, Mean, N 6): 189 L
AUC(0-t) (4 mg, Day 21, dose 4 mg oral once daily, Median, N 6, read-out: AUC24hr): 2470 ng·h/mL
Cmax (4 mg, Day 21, dose 4 mg oral once daily, Median, N 6, read-out: Cmax): 131 ng/mL
Tmax (4 mg, Day 21, dose 4 mg oral once daily, Median, N 6, read-out: Tmax): 5 h
half-life (4 mg, Day 21, dose 4 mg oral once daily, Median, N 6, read-out: apparent terminal half life (t½) (converted)): 45.3 h
Vd/F (4 mg, Day 21, dose 4 mg oral once daily, Median, N 6): 106 L
AUC(0-t) (4 mg/day, Day 1, 4 mg/day oral (n = 6), read-out: AUC24 hr, Arithmetic Mean): 587 ng·h/mL
Cmax (4 mg/day, Day 1, 4 mg/day oral (n = 6), read-out: Cmax, Arithmetic Mean): 32.5 ng/mL
Tmax (4 mg/day, Day 1, 4 mg/day oral (n = 6), read-out: Median Tmax): 5.08 h
Tmax (4 mg/day, Day 1, 4 mg/day oral (n = 6), read-out: Tmax (Range)): 3 to 6 h
half-life (4 mg/day, Day 1, 4 mg/day oral (n = 6), read-out: t1/2, Arithmetic Mean (converted)): 41.6 h
AUC(0-t) (4 mg/day, Day 21, 4 mg/day oral (n = 6), read-out: AUC24 hr, Arithmetic Mean): 2040 ng·h/mL
Cmax (4 mg/day, Day 21, 4 mg/day oral (n = 6), read-out: Cmax, Arithmetic Mean): 115 ng/mL
Tmax (4 mg/day, Day 21, 4 mg/day oral (n = 6), read-out: Median Tmax): 5 h
Tmax (4 mg/day, Day 21, 4 mg/day oral (n = 6), read-out: Tmax (Range)): 2 to 10 h
half-life (4 mg/day, Day 21, 4 mg/day oral (n = 6), read-out: t1/2, Arithmetic Mean (converted)): 45.1 h
time to attain steady state: ≤ 7 days
time to attain steady state (listed as (Z)-endoxifen): approximately 7 days
Compound: CC/C(=C(\c1ccc(O)cc1)c1ccc(OCCNC)cc1)c1ccccc1 [(Z)-Endoxifen, (Z)-4-(1-(4-(2-(methylamino)ethoxy)phenyl)-2-phenylbut-1-enyl) phenol]
